ChEMBL document CHEMBL1201862, “PubChem BioAssay data set” (2004)
Several values for one entry are separate records, joined by “and”; a condition that tells them apart may be missing. Identical values can stand only once.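 Assay format: 96-well plates, 48-hour exposure. At the GI50, growth is halved.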 Activity calls are given as the source filed them. Cut-off read from the data, not from the text of the source: active = GI50 up to about 1.1 µM and inactive = higher.

Assays:
Assay in all cases: inhibition of tumour cell growth, NCI panel, 48 h
IGROV-1 = test system: IGROV-1
Malme-3M = test system: Malme-3M
SK-OV-3 = test system: SK-OV-3
OVCAR-3 = test system: OVCAR-3
HOP-62 = test system: HOP-62
K562 = test system: K562
U-251 = test system: U-251
EKVX = test system: EKVX
MDA-MB-231 = test system: MDA-MB-231
SK-MEL-5 = test system: SK-MEL-5
HCC 2998 = test system: HCC 2998
SR = test system: SR
MOLT-4 = test system: MOLT-4
SW-620 = test system: SW-620
NCI-H460 = test system: NCI-H460
KM12 = test system: KM12
HCT-116 = test system: HCT-116
TK-10 = test system: TK-10
A549 = test system: A549
M14 = test system: M14
ACHN = test system: ACHN
786-0 = test system: 786-0
SNB-75 = test system: SNB-75
CCRF-CEM = test system: CCRF-CEM
OVCAR-5 = test system: OVCAR-5
SK-MEL-2 = test system: SK-MEL-2
RXF 393 = test system: RXF 393
DU-145 = test system: DU-145
T47D = test system: T47D
CAKI-1 = test system: CAKI-1
COLO 205 = test system: COLO 205
MCF7 = test system: MCF7
SK-MEL-28 = test system: SK-MEL-28
SNB-19 = test system: SNB-19
NCI-H226 = test system: NCI-H226
PC-3 = test system: PC-3
NCI/ADR-RES = test system: NCI/ADR-RES
OVCAR-8 = test system: OVCAR-8
LOX IMVI = test system: LOX IMVI
MDA-N = test system: MDA-N
RPMI-8226 = test system: RPMI-8226
UACC-257 = test system: UACC-257
SF-295 = test system: SF-295
UACC-62 = test system: UACC-62
OVCAR-4 = test system: OVCAR-4
NCI-H23 = test system: NCI-H23
HL-60 = test system: HL-60
Hs-578T = test system: Hs-578T
HT-29 = test system: HT-29
HCT-15 = test system: HCT-15
A498 = test system: A498
SN12C = test system: SN12C
SF-539 = test system: SF-539
SF-268 = test system: SF-268
UO-31 = test system: UO-31
NCI-H522 = test system: NCI-H522
MDA-MB-435 = test system: MDA-MB-435

CC(C)/C(Cl)=N\OC(=O)Nc1cccc(Cl)c1
GI50 (IGROV-1): 18.6 µM (inactive)
GI50 (Malme-3M): 11.6 µM (inactive)
GI50 (SK-OV-3): > 43.9 µM (inactive)
GI50 (OVCAR-3): 3.28 µM (inactive)
GI50 (HOP-62): > 46 µM (inactive)
GI50 (K562): 2.07 µM (inactive)
GI50 (U-251): 18.4 µM (inactive)
GI50 (EKVX): 16.3 µM (inactive)
GI50 (MDA-MB-231): 15.2 µM (inactive)
GI50 (SK-MEL-5): 13.5 µM (inactive)
GI50 (HCC 2998): 17 µM (inactive)
GI50 (SR): 2.49 µM (inactive)
GI50 (MOLT-4): 2.65 µM (inactive)
GI50 (SW-620): 2.97 µM (inactive)
GI50 (NCI-H460): 13.7 µM (inactive)
GI50 (KM12): 16.5 µM (inactive)
GI50 (HCT-116): 18.1 µM (inactive)
GI50 (TK-10): 15.3 µM (inactive)
GI50 (A549): 18.4 µM (inactive)
GI50 (M14): 305 nM (active)
GI50 (ACHN): 6.22 µM (inactive)
GI50 (786-0): 15.7 µM (inactive)
GI50 (SNB-75): 13.9 µM (inactive)
GI50 (CCRF-CEM): 1.67 µM (inactive)
GI50 (OVCAR-5): 13.5 µM (inactive)
GI50 (SK-MEL-2): 15.5 µM (inactive)
GI50 (RXF 393): 18.5 µM (inactive)
GI50 (DU-145): 22.5 µM (inactive)
GI50 (T47D): 26.8 µM (inactive)
GI50 (CAKI-1): 17.7 µM (inactive)
GI50 (COLO 205): 2.08 µM (inactive)
GI50 (MCF7): 15.8 µM (inactive)
GI50 (SK-MEL-28): 16.9 µM (inactive)
GI50 (SNB-19): > 100 µM (inactive)
GI50 (NCI-H226): 20.8 µM (inactive)
GI50 (PC-3): 15.9 µM (inactive)
GI50 (NCI/ADR-RES): 10.6 µM (inactive)
GI50 (OVCAR-8): 15.4 µM (inactive)
GI50 (LOX IMVI): 3.72 µM (inactive)
GI50 (MDA-N): 14.8 µM (inactive)
GI50 (RPMI-8226): 4.45 µM (inactive)
GI50 (UACC-257): 13.6 µM (inactive)
GI50 (SF-295): 36.1 µM (inactive)
GI50 (UACC-62): 20.2 µM (inactive)
GI50 (OVCAR-4): 13.3 µM (inactive)
GI50 (NCI-H23): 15.2 µM (inactive)
GI50 (HL-60): 1.71 µM (inactive)
GI50 (Hs-578T): 28.3 µM (inactive)
GI50 (HT-29): 15 µM (inactive)
GI50 (HCT-15): 16.1 µM
GI50 (A498): 17.4 µM (inactive)
GI50 (SN12C): 16.1 µM (inactive)
GI50 (SF-539): 18.9 µM (inactive)
GI50 (SF-268): 18.5 µM (inactive)
GI50 (UO-31): 19.1 µM (inactive)
GI50 (NCI-H522): 1.66 µM (inactive)

CC(=O)OCC1OC(n2c(-c3ccc(Cl)cc3)ccc(C#N)c2=S)C(OC(C)=O)C(OC(C)=O)C1OC(C)=O (configuration not stated)
GI50 (Malme-3M): > 61.1 µM (inactive) and 45 µM (inactive)
GI50 (K562): > 100 µM (inactive)
GI50 (EKVX): 17.6 µM (inactive) and 15.1 µM (inactive)
GI50 (HCC 2998): > 100 µM (inactive)
GI50 (MOLT-4): > 100 µM (inactive) and 51.3 µM (inactive)
GI50 (MDA-MB-435): 53.3 µM (inactive)
GI50 (SW-620): > 100 µM (inactive)
GI50 (NCI-H460): > 60.4 µM (inactive) and 55.5 µM (inactive)
GI50 (KM12): > 100 µM (inactive)
GI50 (HCT-116): 77.4 µM (inactive) and 61.2 µM (inactive)
GI50 (A549): 83.9 µM (inactive) and 66.5 µM (inactive)
GI50 (M14): 76 µM (inactive) and > 84.7 µM (inactive)
GI50 (ACHN): 68.1 µM (inactive) and 58.5 µM (inactive)
GI50 (CCRF-CEM): > 100 µM (inactive)
GI50 (OVCAR-5): > 100 µM (inactive)
GI50 (RXF 393): 20 µM (inactive) and 13.3 µM (inactive)
GI50 (DU-145): 74.8 µM (inactive) and > 77.1 µM (inactive)
GI50 (T47D): 30.6 µM (inactive) and 48.9 µM (inactive)
GI50 (MCF7): > 100 µM (inactive) and 50.5 µM (inactive)
GI50 (SK-MEL-28): > 100 µM (inactive)
GI50 (NCI-H226): 27 µM (inactive) and 45.9 µM (inactive)
GI50 (PC-3): > 100 µM (inactive) and 55.5 µM (inactive)
GI50 (NCI/ADR-RES): 74 µM (inactive)
GI50 (LOX IMVI): 54.1 µM (inactive)
GI50 (MDA-N): > 100 µM (inactive)
GI50 (RPMI-8226): > 100 µM (inactive) and 56 µM (inactive)
GI50 (UACC-257): > 100 µM (inactive) and 73.6 µM (inactive)
GI50 (UACC-62): 37.4 µM (inactive) and 31.6 µM (inactive)
GI50 (HL-60): > 100 µM (inactive)
GI50 (HT-29): > 100 µM (inactive)
GI50 (HCT-15): > 100 µM
GI50 (SN12C): > 100 µM (inactive)
GI50 (SF-539): 30.4 µM (inactive) and 39.1 µM (inactive)
GI50 (UO-31): 29.6 µM (inactive) and 33.6 µM (inactive)

O=C(/C=C1\Nc2ccc([N+](=O)[O-])cc2N=C1NC12CC3CC(CC(C3)C1)C2)c1ccccc1
GI50 (IGROV-1): > 10 µM (inactive)
GI50 (Malme-3M): > 10 µM (inactive)
GI50 (SK-OV-3): 3.77 µM (inactive)
GI50 (OVCAR-3): > 10 µM (inactive)
GI50 (HOP-62): > 10 µM (inactive)
GI50 (U-251): 7.16 µM (inactive)
GI50 (EKVX): > 10 µM (inactive)
GI50 (MDA-MB-231): 4.7 µM (inactive)
GI50 (SK-MEL-5): > 10 µM (inactive)
GI50 (HCC 2998): > 10 µM (inactive)
GI50 (MDA-MB-435): > 10 µM (inactive)
GI50 (SW-620): > 10 µM (inactive)
GI50 (NCI-H460): > 10 µM (inactive)
GI50 (KM12): > 10 µM (inactive)
GI50 (TK-10): 9.91 µM (inactive)
GI50 (M14): > 10000 nM (inactive)
GI50 (ACHN): > 10 µM (inactive)
GI50 (786-0): 4.21 µM (inactive)
GI50 (SNB-75): > 10 µM (inactive)
GI50 (OVCAR-5): > 10 µM (inactive)
GI50 (SK-MEL-2): > 10 µM (inactive)
GI50 (RXF 393): 6.53 µM (inactive)
GI50 (DU-145): > 10 µM (inactive)
GI50 (T47D): > 10 µM (inactive)
GI50 (CAKI-1): > 10 µM (inactive)
GI50 (COLO 205): > 10 µM (inactive)
GI50 (MCF7): > 10 µM (inactive)
GI50 (SK-MEL-28): > 10 µM (inactive)
GI50 (NCI-H226): 5.5 µM (inactive)
GI50 (PC-3): > 10 µM (inactive)
GI50 (NCI/ADR-RES): > 10 µM (inactive)
GI50 (OVCAR-8): 9.64 µM (inactive)
GI50 (LOX IMVI): > 10 µM (inactive)
GI50 (MDA-N): > 10 µM (inactive)
GI50 (UACC-257): > 10 µM (inactive)
GI50 (SF-295): > 10 µM (inactive)
GI50 (OVCAR-4): 3.96 µM (inactive)
GI50 (NCI-H23): > 10 µM (inactive)
GI50 (Hs-578T): 3.76 µM (inactive)
GI50 (HT-29): > 10 µM (inactive)
GI50 (HCT-15): > 10 µM
GI50 (A498): 3.85 µM (inactive)
GI50 (SN12C): > 10 µM (inactive)
GI50 (SF-539): 5.41 µM (inactive)
GI50 (SF-268): > 10 µM (inactive)
GI50 (UO-31): > 10 µM (inactive)
GI50 (NCI-H522): > 10 µM (inactive)
